Patent US7015249B1, “Methods and compositions for treating diabetes” (Purdue Research Foundation, priority 1997, dated 2006)

Columns and labels:
Assay type in all cases: cell-based
[1] = target: T1, ligand binding domain of mouse PPARβ (Mus musculus, UniProt P35396); experiment: GAL4-PPARβ chimera / (UAS)5-tk-CAT reporter transfection assay in COS-1 cells; settings: 100 μM in DMSO
T1 construct: expressed in transfected cells; host or cells: COS-1
T1 sequence (P35396 210-438 limits assumed): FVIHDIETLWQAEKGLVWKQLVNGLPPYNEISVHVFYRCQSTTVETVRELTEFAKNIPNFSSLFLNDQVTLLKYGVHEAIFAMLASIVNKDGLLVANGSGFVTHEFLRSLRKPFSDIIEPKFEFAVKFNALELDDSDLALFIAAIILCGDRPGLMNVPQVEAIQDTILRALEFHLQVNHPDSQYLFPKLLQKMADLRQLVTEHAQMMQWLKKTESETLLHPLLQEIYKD
Description: (§1) COS-1 cells (American Type Culture Collection) were maintained in α-minimal essential media (Sigma) supplemented with 8% fetal calf serum (Gibco BRL), 0.2 mg/ml streptomycin and 200 U/ml penicillin. The pSG5-GAL4-PPAR chimera expression constructs, containing the ligand binding domain of mouse PPARα, β or γ, as well as the (UAS)5-tk-CAT reporter construct were kindly provided by Steven A. Kliewer (Glaxo Research Institute). At 75–90% confluence, COS-1 cells were co-transfected with GAL4-PPAR, (UAS)5-tk-CAT, and pSV-βGal (Promega) as described in Lehmann, J. M. et al., J. Biol. Chem. 270, 12953–12956 (1995). Twenty-four hours after transfection, the cells were treated with the indicated amounts of CLA, or a single 100 μM dose of 4-chloro-6-(2,3-xylindino)-2-pyrimidinylthio)-acetic acid (Wy 14,643; a hypolipidemic drug known as a peroxisome proliferator). After 6 hours of treatment, the cells were harvested and chloramphenicol acetyltransferase levels were assessed by ELISA (Gibco BRL) according to the manufacturer's instructions. Data is expressed relative to β-galactosidase activity. CLA used in this experiment was obtained from a commercially available mixture from NuChek Prep, Elysian Minn. The mixture contained about 41.2% by weight of a composition including cis,trans-9,11-octadecadienoic acid and trans,cis-9,11-octadecadienoic acid, about 44% by weight trans,cis-10,12-octadecadienoic acid, about 9.4% by weight cis,cis-10,12-octadecadienoic acid, about 1.3% by weight of a composition including trans,trans-9,11-octadecadienoic acid and trans,trans-10,12-octadecadienoic acid, about 1.1% by weight cis,cis-9,11-octadecadienoic acid, about 0.7% by weight linoleic acid and about 2.2% of other lipids as mentioned above.
In this example, certain PPAR subtypes are shown to be activated by CLA isomers. However, a 100 μM concentration of selected isomers of CLA were also utilized in the transfection assay to determine whether specific isomers of CLA could activate any of the PPAR subtypes.

full length mouse PPARα = target: T2, full length mouse PPARα (Mus musculus, UniProt P23204); experiment: Full length PPARα PPRE-luciferase reporter assay in CV-1 cells; settings: 100 μM, six hours
T2 construct: constructs including full length mouse PPARα, PPARβ or PPARγ and a luciferase reporter gene; expressed in transfected cells; host or cells: CV-1 (African green monkey kidney cells)
T2 sequence (P23204 1-468): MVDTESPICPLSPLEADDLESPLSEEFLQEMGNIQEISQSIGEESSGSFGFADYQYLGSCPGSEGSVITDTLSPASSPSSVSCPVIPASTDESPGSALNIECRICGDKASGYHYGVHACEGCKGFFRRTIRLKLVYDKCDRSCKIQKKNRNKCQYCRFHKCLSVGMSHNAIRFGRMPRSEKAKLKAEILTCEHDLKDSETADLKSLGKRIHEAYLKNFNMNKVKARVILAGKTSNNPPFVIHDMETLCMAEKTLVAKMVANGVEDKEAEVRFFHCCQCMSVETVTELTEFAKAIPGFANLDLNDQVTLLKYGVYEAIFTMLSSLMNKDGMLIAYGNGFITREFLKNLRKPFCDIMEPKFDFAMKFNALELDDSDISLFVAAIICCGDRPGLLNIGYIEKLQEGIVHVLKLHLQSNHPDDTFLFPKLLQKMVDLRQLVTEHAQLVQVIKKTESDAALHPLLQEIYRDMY
Description: (§2) The data in FIGS. 5–7 was generated utilizing constructs including full length mouse PPARα, PPARβ or PPARγ and a luciferase reporter gene. The CV-1 cell line (African green monkey kidney cells) used was obtained from American Type Culture Collection (#CCL-70). The cells were grown in Eagle minimal essential medium containing 10% fetal bovine serum (GIBCO). For each transfection involving PPARα, 625 ng pcDNA3-PPARα expression vector was used along with 250 ng of psV-GL-2-PPRE-luciferase reporter plasmid and 250 ng of pSV-β-galactosidase internal control plasmid. For each transfection involving PPARβ or PPARγ, either 625 ng pSG5-mouse-PPARβ or 625 ng pSG5-mouse-PPARγ was used along with 250 ng of the psV-GL2-PPRE-luciferase reporter plasmid and 250 ng of pSV-β-galactosidase internal control plasmid. Cells were transfected using Lipofect AMINE™ reagent (GIBCO) and phenol red-free, serum free medium (OptiMEM®I, GIBCO Life Technologies, Grand Island, N.Y.). Seven hours post-transfection, charcoal stripped serum (Cocalico Biologicals, Inc. Reamstown, Pa.) was added to the media (10% final concentration) for an overnight incubation (16 hours). […] The data were quantified relative to luciferase/β-galactosidase activity expressed as a ratio to vehicle-treated cells (0.1% DMSO).

full length mouse PPARβ = target: T3, full length mouse PPARβ (Mus musculus, UniProt P35396); experiment: Full length PPARβ PPRE-luciferase reporter assay in CV-1 cells; settings: 100 μM
T3 construct: constructs including full length mouse PPARα, PPARβ or PPARγ and a luciferase reporter gene; expressed in transfected cells; host or cells: CV-1 (African green monkey kidney cells)
T3 sequence (P35396 1-440): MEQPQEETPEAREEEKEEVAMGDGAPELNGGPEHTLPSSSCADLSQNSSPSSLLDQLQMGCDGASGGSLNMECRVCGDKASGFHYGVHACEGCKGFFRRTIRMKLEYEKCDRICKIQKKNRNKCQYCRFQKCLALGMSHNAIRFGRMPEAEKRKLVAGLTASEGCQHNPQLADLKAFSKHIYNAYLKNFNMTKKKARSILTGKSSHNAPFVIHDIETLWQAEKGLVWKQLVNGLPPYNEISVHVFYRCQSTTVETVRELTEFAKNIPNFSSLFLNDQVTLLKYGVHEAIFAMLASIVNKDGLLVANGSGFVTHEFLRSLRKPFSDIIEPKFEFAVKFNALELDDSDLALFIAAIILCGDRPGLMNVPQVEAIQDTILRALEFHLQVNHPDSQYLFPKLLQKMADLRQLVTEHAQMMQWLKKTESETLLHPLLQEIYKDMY
Description: as §2

full length mouse PPARγ = target: T4, full length mouse PPARγ (Mus musculus, UniProt P37238); experiment: Full length PPARγ PPRE-luciferase reporter assay in CV-1 cells; settings: 100 μM, six hours
T4 construct: constructs including full length mouse PPARα, PPARβ or PPARγ and a luciferase reporter gene; expressed in transfected cells; host or cells: CV-1 (African green monkey kidney cells)
T4 sequence (P37238 1-505): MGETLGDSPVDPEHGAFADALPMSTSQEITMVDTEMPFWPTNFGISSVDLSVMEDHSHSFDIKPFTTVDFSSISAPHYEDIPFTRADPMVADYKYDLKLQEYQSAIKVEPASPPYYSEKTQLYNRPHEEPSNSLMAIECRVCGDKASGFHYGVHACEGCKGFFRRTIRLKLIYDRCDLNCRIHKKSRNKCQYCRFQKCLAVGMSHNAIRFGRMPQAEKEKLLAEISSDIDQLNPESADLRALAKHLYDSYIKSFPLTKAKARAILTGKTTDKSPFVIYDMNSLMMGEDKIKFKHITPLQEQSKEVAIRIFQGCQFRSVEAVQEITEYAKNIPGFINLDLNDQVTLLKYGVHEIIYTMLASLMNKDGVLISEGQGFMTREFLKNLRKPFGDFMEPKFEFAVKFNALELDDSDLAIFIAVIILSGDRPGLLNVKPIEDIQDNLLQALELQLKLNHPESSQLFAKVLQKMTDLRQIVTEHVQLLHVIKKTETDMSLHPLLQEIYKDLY
Description: as §2

[2] = target: T5, ligand binding domain of mouse PPARα (Mus musculus, UniProt P23204); experiment: GAL4-PPARα chimera / (UAS)5-tk-CAT reporter transfection assay in COS-1 cells; settings: 100 μM in DMSO
T5 construct: expressed in transfected cells; host or cells: COS-1
T5 sequence (P23204 239-466 limits assumed): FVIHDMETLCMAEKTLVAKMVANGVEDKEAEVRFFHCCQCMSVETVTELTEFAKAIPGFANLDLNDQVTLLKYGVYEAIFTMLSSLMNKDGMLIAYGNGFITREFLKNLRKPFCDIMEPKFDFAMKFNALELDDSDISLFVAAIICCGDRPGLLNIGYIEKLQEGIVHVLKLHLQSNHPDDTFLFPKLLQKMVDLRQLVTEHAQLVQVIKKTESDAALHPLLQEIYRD
Description: as §1, with “The mixture contained about 41.2% by weight of a composition including cis,trans-9,11-octadecadienoic acid and trans,cis-9,11-octadecadienoic acid, about 44% by weight trans,cis-10,12-octadecadienoic acid, about 9.4% by weight cis,cis-10,12-octadecadienoic acid, about 1.3% by weight of a composition including trans,trans-9,11-octadecadienoic acid and trans,trans-10,12-octadecadienoic acid, about 1.1% by weight cis,cis-9,11-octadecadienoic acid, about 0.7% by weight linoleic acid and about 2.2% of other lipids as mentioned above.” left out

[3] = listed as trans,cis-10,12-octadecadienoic acid

| Structure (SMILES) | activation of PPARβ, compared with CLA mixture (FIG. 4) [1] | activation of full length PPARα vs DMSO control / CLA mixture (FIG. 5) (full length mouse PPARα) | activation of full length PPARα vs DMSO control / CLA mixture (FIG. 5) (full length mouse PPARα; [3]) | activation of full length PPARβ vs DMSO control / CLA mixture (FIG. 6) (full length mouse PPARβ) | activation of full length PPARβ vs DMSO control / CLA mixture (FIG. 6) (full length mouse PPARβ; [3]) | activation of full length PPARγ vs DMSO control (FIG. 7) (full length mouse PPARγ) | activation of PPARα, compared with CLA mixture (FIG. 4) [2] |
| --- | --- | --- | --- | --- | --- | --- | --- |
| CCCCCC/C=C/C=C/CCCCCCCC(=O)O [9E11E, trans,trans-9,11-octadecadienoic acid] | more than CLA mixture alone | – | – | – | – | – | – |
| CCCCC/C=C\C=C\CCCCCCCCC(=O)O [trans,cis-10,12 CLA isomer, trans,cis-10,12-octadecadienoic acid] | – | significantly more than the CLA mixture alone | activate | significantly more than the CLA mixture alone | activate | activate | – |
| CCCCCC/C=C/C=C\CCCCCCCC(=O)O [9Z11E, cis,trans-9,11-octadecadienoic acid] | more than the CLA mixture | – | – | – | – | – | more than the CLA mixture |
| CCCCCC/C=C\C=C/CCCCCCCC(=O)O [9Z11Z, cis,cis-9,11-octadecadienoic acid] | more than the CLA mixture | – | – | – | – | – | more than the CLA mixture |
